Source: patent publication US7678796B2, “MGluR5 modulators I” (AstraZeneca AB, priority 2006, dated 2010)

Legend:
human mGluR5d = biological target: T1, human mGluR5d (Homo sapiens, UniProt P41594); assay: FLIPR assay, functional assessment of mGluR5 antagonism (intracellular calcium mobilization); type: cell-based; settings: cells expressing human mGluR5d; read-out: FLIPR hmGluR5d
T1 construct: expressed in transfected cells
Text: Biological Evaluation Functional Assessment of mGluR5 Antagonism in Cell Lines Expressing mGluR5D
The properties of the compounds of the invention can be analyzed using standard assays for pharmacological activity. Examples of glutamate receptor assays are well known in the art as described in for example Aramori et al., Neuron 8:757 (1992), Tanabe et al., Neuron 8:169 (1992), Miller et al., J. Neuroscience 15: 6103 (1995), Balazs, et al., J. Neurochemistry 69:151 (1997). The methodology described in these publications is incorporated herein by reference. Conveniently, the compounds of the invention can be studied by means of an assay (FLIPR) that measures the mobilization of intracellular calcium, [Ca^2+]i in cells expressing mGluR5 or another assay (IP3) that measures inositol phosphate turnover.
Cells expressing human mGluR5d as described in WO97/05252 are seeded at a density of 100,000 cells per well on collagen coated clear bottom 96-well plates with black sides and experiments are done 24 h following seeding. All assays are done in a buffer containing 127 mM NaCl, 5 mM KCl, 2 mM MgCl2, 0.7 mM NaH2PO4, 2 mM CaCl2, 0.422 mg/mL NaHCO3, 2.4 mg/mL HEPES, 1.8 mg/mL glucose and 1 mg/mL BSA Fraction IV (pH 7.4). Cell cultures in the 96-well plates are loaded for 60 minutes in the above mentioned buffer containing 4 μM of the acetoxymethyl ester form of the fluorescent calcium indicator fluo-3 (Molecular Probes, Eugene, Oreg.) in 0.01% pluronic acid (a proprietary, non-ionic surfactant polyol—CAS Number 9003-11-6). Following the loading period the fluo-3 buffer is removed and replaced with fresh assay buffer. FLIPR experiments are done using a laser setting of 0.800 W and a 0.4 second CCD camera shutter speed with excitation and emission wavelengths of 488 nm and 562 nm, respectively. Each experiment is initiated with 160 μl of buffer present in each well of the cell plate. A 40 μl addition from the antagonist plate was followed by a 50 μL addition from the agonist plate. A 30 minute interval separates the antagonist and agonist additions. The fluorescence signal is sampled 50 times at 1 second intervals followed by 3 samples at 5 second intervals immediately after each of the two additions. Responses are measured as the difference between the peak height of the response to agonist, less the background fluorescence within the sample period. IC50 determinations are made using a linear least squares fitting program.

[1] = Determination of brain to plasma ratio in rat; type: in vivo; settings: female Sprague Dawley rats, read-out: Brain/Plasma Ratio of compound in Rat
Procedure: Brain to plasma ratios are estimated in female Sprague Dawley rats. The compound is dissolved in water or another appropriate vehicle. For determination of brain to plasma ratio the compound is administrated as a subcutaneous, or an intravenous bolus injection, or an intravenous infusion, or an oral administration. At a predetermined time point after the administration a blood sample is taken with cardiac puncture. The rat is terminated by cutting the heart open, and the brain is immediately retained. The blood samples are collected in heparinized tubes and centrifuged within 30 minutes, in order to separate the plasma from the blood cells. The plasma is transferred to 96-well plates and stored at −20° C. until analysis. The brains are divided in half, and each half is placed in a pre-tarred tube and stored at −20° C. until analysis. Prior to the analysis, the brain samples are thawed and 3 mL/g brain tissue of distilled water is added to the tubes. The brain samples are sonicated in an ice bath until the samples are homogenized. Both brain and plasma samples are precipitated with acetonitrile. After centrifugation, the supernatant is diluted with 0.2% formic acid. Analysis is performed on a short reversed-phase HPLC column with rapid gradient elution and MSMS detection using a triple quadrupole instrument with electrospray ionisation and Selected Reaction Monitoring (SRM) acquisition. Liquid-liquid extraction may be used as an alternative sample clean-up. The samples are extracted, by shaking, to an organic solvent after addition of a suitable buffer. An aliquot of the organic layer is transferred to a new vial and evaporated to dryness under a stream of nitrogen. After reconstitution of the residuals the samples are ready for injection onto the HPLC column.

HERG = HERG (Homo sapiens, UniProt Q12809); assay: HERG ionworks; type: cell-based
Chain of HERG (Q12809 whole entry): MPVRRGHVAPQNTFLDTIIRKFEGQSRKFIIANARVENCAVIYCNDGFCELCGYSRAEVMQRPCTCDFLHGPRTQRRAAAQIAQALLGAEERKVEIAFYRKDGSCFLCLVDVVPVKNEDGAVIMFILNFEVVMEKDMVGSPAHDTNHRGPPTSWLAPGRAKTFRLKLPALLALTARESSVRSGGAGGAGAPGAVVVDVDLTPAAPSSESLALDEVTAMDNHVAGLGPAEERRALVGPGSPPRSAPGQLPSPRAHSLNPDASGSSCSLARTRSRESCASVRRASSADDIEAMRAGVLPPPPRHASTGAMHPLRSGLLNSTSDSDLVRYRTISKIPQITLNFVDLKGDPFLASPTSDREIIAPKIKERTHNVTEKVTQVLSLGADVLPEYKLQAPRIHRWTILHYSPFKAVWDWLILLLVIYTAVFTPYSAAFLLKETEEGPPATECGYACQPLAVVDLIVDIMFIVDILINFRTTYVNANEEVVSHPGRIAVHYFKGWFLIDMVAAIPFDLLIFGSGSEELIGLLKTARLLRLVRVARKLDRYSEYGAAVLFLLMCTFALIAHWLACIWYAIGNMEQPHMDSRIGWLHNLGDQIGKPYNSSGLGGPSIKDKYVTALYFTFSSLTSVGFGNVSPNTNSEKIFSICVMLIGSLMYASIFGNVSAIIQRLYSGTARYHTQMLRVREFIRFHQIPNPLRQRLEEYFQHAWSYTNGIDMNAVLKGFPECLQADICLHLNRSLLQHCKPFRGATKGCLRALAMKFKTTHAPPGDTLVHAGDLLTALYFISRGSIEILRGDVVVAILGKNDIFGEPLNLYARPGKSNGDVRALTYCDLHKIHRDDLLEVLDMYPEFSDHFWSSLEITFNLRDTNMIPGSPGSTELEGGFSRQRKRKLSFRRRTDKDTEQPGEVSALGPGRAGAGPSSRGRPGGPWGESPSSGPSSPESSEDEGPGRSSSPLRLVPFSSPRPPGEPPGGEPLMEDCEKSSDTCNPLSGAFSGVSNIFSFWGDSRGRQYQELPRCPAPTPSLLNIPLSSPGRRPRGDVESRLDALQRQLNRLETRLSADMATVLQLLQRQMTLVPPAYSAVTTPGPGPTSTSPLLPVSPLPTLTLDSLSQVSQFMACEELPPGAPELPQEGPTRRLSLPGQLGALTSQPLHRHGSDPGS

[2] = Determination of in vitro stability in human liver microsomes (CLint); type: in vitro ADME; settings: pH 7.4, 0.5 mg/mL protein, 1.0 μmol/L compound, NADPH
Procedure: Rat liver microsomes are prepared from Sprague-Dawley rats liver samples. Human liver microsomes are either prepared from human liver samples or acquired from BD Gentest. The compounds are incubated at 37° C. at a total microsome protein concentration of 0.5 mg/mL in a 0.1 mol/L potassium phosphate buffer at pH 7.4, in the presence of the cofactor, NADPH (1.0 mmol/L). The initial concentration of compound is 1.0 μmol/L. Samples are taken for analysis at 5 time points, 0, 7, 15, 20 and 30 minutes after the start of the incubation. The enzymatic activity in the collected sample is immediately stopped by adding a 3.5 times volume of acetonitrile. The concentration of compound remaining in each of the collected samples is determined by means of LC-MS. The elimination rate constant (k) of the mGluR5 inhibitor is calculated as the slope of the plot of In[mGluR5 inhibitor] against incubation time (minutes). The elimination rate constant is then used to calculate the half-life (T ½) of the mGluR5 inhibitor, which is subsequently used to calculate the intrinsic clearance (CLint) of the mGluR5 inhibitor in liver microsomes as: CLint.=(ln 2×incubation volume)/(T ½×protein concentration)=μl/min/mg

T1 sequence (P41594 21-942 isoform P41594-3 limits assumed): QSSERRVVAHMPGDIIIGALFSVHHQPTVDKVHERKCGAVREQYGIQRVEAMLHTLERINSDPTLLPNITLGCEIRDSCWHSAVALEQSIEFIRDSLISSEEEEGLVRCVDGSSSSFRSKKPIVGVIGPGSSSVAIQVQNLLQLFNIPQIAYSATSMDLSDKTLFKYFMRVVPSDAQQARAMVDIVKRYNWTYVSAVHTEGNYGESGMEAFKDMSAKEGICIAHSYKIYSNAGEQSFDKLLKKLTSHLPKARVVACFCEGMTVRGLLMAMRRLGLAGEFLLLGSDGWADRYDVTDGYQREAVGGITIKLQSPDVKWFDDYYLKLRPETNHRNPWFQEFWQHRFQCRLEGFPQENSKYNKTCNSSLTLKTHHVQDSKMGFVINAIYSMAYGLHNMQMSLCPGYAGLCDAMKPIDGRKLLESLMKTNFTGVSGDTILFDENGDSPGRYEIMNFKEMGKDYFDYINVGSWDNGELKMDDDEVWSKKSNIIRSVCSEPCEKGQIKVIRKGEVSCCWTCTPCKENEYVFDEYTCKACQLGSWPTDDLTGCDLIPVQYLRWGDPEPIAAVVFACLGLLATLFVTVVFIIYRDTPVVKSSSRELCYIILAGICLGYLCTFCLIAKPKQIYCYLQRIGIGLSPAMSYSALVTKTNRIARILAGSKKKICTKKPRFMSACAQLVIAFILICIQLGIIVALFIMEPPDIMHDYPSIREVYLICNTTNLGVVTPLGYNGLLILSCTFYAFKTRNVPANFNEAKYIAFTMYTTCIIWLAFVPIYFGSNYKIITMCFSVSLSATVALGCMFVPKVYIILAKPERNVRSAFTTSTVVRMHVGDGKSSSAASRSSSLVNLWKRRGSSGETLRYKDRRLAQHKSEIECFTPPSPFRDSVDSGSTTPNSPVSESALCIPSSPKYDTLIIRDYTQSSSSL

IC50 (human mGluR5d) [nM] | Kp [1] | microsomal CLint at 1 μmol/L [2] [µL/min/mg] | Structure (SMILES) | HERG ionworks (HERG) [µM]
25 | 0.11 | < 12 | Cn1c(-c2ccnnc2)nnc1N1CCC[C@@H]1c1cc(-c2cccc(Cl)c2)on1 [Example 31.8, 4-(5-{(R)-2-[5-(3-Chloro-phenyl)-isoxazol-3-yl]-pyrrolidin-1-yl}-4-methyl-4H-[1,2,4]triazol-3-yl)-pyridazine] | 16
50 | 0.01 | < 12 | Cc1cccc(-c2cc([C@H]3CCCN3c3nnc(-c4ccn(C)c(=O)c4)n3C)no2)c1 [Example 31.19, 1-Methyl-4-{4-methyl-5-[(R)-2-(5-m-tolylisoxazol-3-yl)pyrrolidin-1-yl]-4H-[1,2,4]triazol-3-yl}-1H-pyridin-2-one] | 24
47 | 0.005 | < 12 | Cn1c(-c2ccc(=O)n(C)c2)nnc1N1CCC[C@@H]1c1cc(-c2cccc(Cl)c2)on1 [Example 31.7, 5-(5-{(R)-2-[5-(3-Chloro-phenyl)-isoxazol-3-yl]-pyrrolidin-1-yl}-4-methyl-4H-[1,2,4]triazol-3-yl)-1-methyl-1H-pyridin-2-one] | 23
39 | 0.035 | < 12 | Cn1c(-c2ccn(C)c(=O)c2)nnc1N1CCC[C@@H]1c1nnn(-c2cccc(Cl)c2)n1 [Example 31.11, 4-(5-{(R)-2-[2-(3-Chloro-phenyl)-2H-tetrazol-5-yl]-pyrrolidin-1-yl}-4-methyl-4H-[1,2,4]triazol-3-yl)-1-methyl-1H-pyridin-2-one] | 20
